Columns and labels:
[1] = tested on: Patient-derived cell line RN1 (MGMT unmethylated GBM); test: Efficacy in balb/c nude mice harboring intracranial patient-derived glioblastoma (RN1), Kaplan-Meier survival; settings: for survival rate: at 105 days, control 0%; for median survival time: gavage daily; for mice that survived longer than the longest surviving mouse in the control group: n=8
Protocol: Patient-derived cell line RN1 (2 μL) was intra-cranially injected into balb/c nude mice.
6-8 week old balb/c nude mice were used. All procedures, except autopsies, were carried out within a laminar flow cabinet. Tumors were induced following the procedure disclosed in Wakimoto H. et al. (2012) Neuro Oncol. 14(2): 132-44. Balb/c nude mice were weighed and held in groups of four. The mice received an analgesic 2 hours prior to primary human tumor cell implantation—the mice were injected subcutaneously with 5 mg/kg Rimadyl (Carprofen). The animals were anesthetized via continuous mask inhalation of isoflurane (2.5-3%, 1 L/min oxygen for induction and 1-2.5%, 0.2 L/min oxygen for maintenance). The depth of anesthesia was assessed by toe pinch reflex (leg withdrawal) before the procedure began (cf. monitoring sheet #1).
A 2 mm drill hole was made at the stereotactically in the right caudate putamen using the coordinates 1 mm anterior, 1.5 mm lateral, and 3.0 mm below the bregma. A micro-injector unit (holding a 2 μl Hamilton syringe with a 25-gauge needle) connected to the manipulating arm of the stereotactic device was used to inject a 2 μL solution containing 200,000 primary human tumor cells dorsoventrally (DV) at −3 from the skull surface, to deposit cells into the lateral portion of the striatum (right basal ganglia). All injections were made over a period of 10 minutes to ensure optimal parenchymal compliance. The micro-injector needle was retracted and the burr hole in the skull closed using bone-wax (Johnson & Johnson) in order to prevent extracranial tumor growth. Skin was closed using a tissue adhesive (Vetbond). Mice received sterile eye drops (Systane) throughout the procedure to avoid eye dryness.
Two dosages of ibudilast were administered to the balb/c nude mice: 5 mg/kg and 20 mg/kg (both in 100 uL total volume). The dosage of ibudilast was extrapolated from multiple animal studies on rats looking at the treatment of multiple sclerosis (MS) disease and models of central neuropathic pain (Ellis et al. 2014; Reagan-shaw et al. 2008).
10 mg/kg of temozolomide (TMZ) was administered to the balb/c nude mice through intraperitoneal injection.
Five treatment groups were used as follows: • 1. Ibudilast 5 mg/kg by gavage (n=8) • 2. Ibudilast: 20 mg/kg by gavage (n=8) • 3. Combination 1: Ibudilast (5 mg/kg)+TMZ (10 mg/kg) (n=8) • 4. Combination 2: Ibudilast (20 mg/kg)+TMZ (10 mg/kg) (n=8) • 5. Control saline containing polyoxyethylene hydrogenated castor oil 60; 100 μL) (n=8)
For all of the treatment groups (except the control group), ibudilast was administered by gavage (daily) for approximately 59 days (until the last control mouse died) and TMZ was administered via intraperitoneal injection (daily) for two weeks.
At approximately 43 days after tumor implantation, mice were treated with temozolomide (10 mg/kg) and/or ibudilast (5 mg/kg or 20 mg/kg). Ibudilast was administered in a solution of saline containing polyoxyethylene hydrogenated castor oil 60 using the gavage method (100 μl total volume) (Fujimoto et al., 1999 J Neuroimmunology 95:1-2, 35-42). Temozolomide was delivered by intraperitoneal injection (I.P.) in 0.1% dimethyl sulfoxide (DMSO, […] total volume).
At this particular time, animals were carefully monitored (twice daily) as neurological decline can occur rapidly. Typical signs of neurological decline include a hunched posture with an arched back, continuous circling, walking on tip-toes, balance issues, closed eyes, hyperactivity, and seizures. Neurological decline was scored (cf. monitoring sheet #3) for each animal.
When signs of pain, distress or neurological decline were noted, animals were immediately euthanized by inhalation of a progressive overdose of carbon dioxide (cf. B.7). Animals were also immediately euthanized if they lost more than 20% of their body weight.

[2] = in vivo; cited from earlier work

Row | SMILES | median survival ([1]; TMZ 10 mg/kg intraperitoneal daily for two weeks, control 100.5 days) | CNS penetration [2] | effect in the mouse glioblastoma model ([1]; 5 and 20 mg/kg) | survival rate ([1]; ibudilast 5 mg/kg) | survival rate ([1]; ibudilast 20 mg/kg) | median survival time ([1]; ibudilast 5 mg/kg (low dose) monotherapy, control 100.5 days) | mice that survived longer than the longest surviving mouse in the control group ([1]; ibudilast 5 mg/kg) | median survival time ([1]; ibudilast 20 mg/kg (high dose) monotherapy, control 100.5 days) | mice that survived longer than the longest surviving mouse in the control group ([1]; ibudilast 20 mg/kg) | median survival compared with controls (significance) ([1]; monotherapy at either low dose (5 mg/kg) or high dose (20 mg/kg))
1 | Cn1nnc2c(C(N)=O)ncn2c1=O [TMZ, temozolomide] | 105.5 days |  |  |  |  |  |  |  |  | 
2 | CC(C)C(=O)c1c(C(C)C)nn2ccccc12 [ibudilast, 3-isobutyryl-2-isopropylpyrazolo[1,5-a]pyridine] |  | good CNS penetration | positive effect | 12% | 25% | 89 days | one mouse | 97.5 days | two mice | did not significantly differ from the controls
3 | COc1ccc(C2CNC(=O)C2)cc1OC1CCCC1 (centres unmarked) [rolipram] |  | poor penetration |  |  |  |  |  |  |  | 

From patent publication US11446283B2, “Methods and dosing regimens using ibudilast and a second agent for cancer therapy” (MediciNova, Inc., priority 2018, dated 2022)
